We go through 8 compounds from patent US12661410B2, “Compounds for targeted degradation of RET” (C4 Therapeutics, Inc., priority 2020, dated 2026).

Where a chain is given by its changes, count along the chain named. Where two headings read alike, the source gives them in different places.

Test [1] addresses T1, RET(KD: 658-1114 G810R) (Homo sapiens, UniProt P07949, G810R).
T1 construct: 658-1114; expressed in transfected cells; host or cells: 293T.165 (293T cells, generated in-house)
T1 sequence (P07949 658-1114 G810R): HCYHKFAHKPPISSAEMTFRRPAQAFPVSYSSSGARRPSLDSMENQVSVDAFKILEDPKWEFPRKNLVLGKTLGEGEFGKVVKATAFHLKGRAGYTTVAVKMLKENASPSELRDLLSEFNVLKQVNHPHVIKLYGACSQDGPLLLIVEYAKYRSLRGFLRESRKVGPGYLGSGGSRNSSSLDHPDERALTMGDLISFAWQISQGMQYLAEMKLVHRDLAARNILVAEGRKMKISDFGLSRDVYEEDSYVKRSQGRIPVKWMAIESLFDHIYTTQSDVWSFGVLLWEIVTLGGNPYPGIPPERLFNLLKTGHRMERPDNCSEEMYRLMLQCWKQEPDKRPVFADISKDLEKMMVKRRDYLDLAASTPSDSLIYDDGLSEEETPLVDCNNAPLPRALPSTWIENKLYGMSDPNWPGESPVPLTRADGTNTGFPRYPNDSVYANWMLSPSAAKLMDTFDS
In words: HiBiT-Degradation, RET G810R degradation assay (Nano-Glo HiBiT Lytic), 293T.165 cells. To be noted: for Emax / DC50: 6.0 hours. Format: cell-based. An outline of the steps:
(§1)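 HEK293T lines stably expressing HiBiT-tagged RET kinase domain (WT: 293T.144; G810R: 293T.165) were treated with degraders for 6 h in duplicate, 11-point half-log series from 10 μM top dose. Lysis with Nano-Glo HiBiT Lytic reagent, luminescence read; DC50 and Emax (% remaining protein) derived from dose-response curves.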
Background: With HiBiT, luminescence reflects the tagged protein that the partner subunit can reach.

Test [2] concerns the target T2, RET (658-1114) (Homo sapiens, UniProt P07949).
T2 construct: 658-1114; expressed in transfected cells; host or cells: 293T.144 (293T cells, generated in-house)
T2 sequence (P07949 658-1114): T1 sequence (P07949 658-1114 G810R) with R153G
In words: HiBiT-Degradation, RET wild-type degradation assay (Nano-Glo HiBiT Lytic), 293T.144 cells. To be noted: for DC50 / Emax: 6.0 hours. It counts as cell-based. Put shortly: as §1

Where [3] appears, read: % remaining protein, read-out: 293T.165 RET(KD: 658-1114 G810R) 6.0 hours (Emax).
Where [4] appears, read: half-maximal degradation concentration, read-out: 293T.165 RET(KD: 658-1114 G810R) 6.0 hours (DC50).
The mark [5] stands for this setting: half-maximal degradation concentration, read-out: 293T.144 RET (658-1114) 6.0 hours (DC50).
Setting [6] is: % remaining protein, read-out: 293T.144 RET (658-1114) 6.0 hours (Emax).

With `CCC1(C(=O)NC(C)C)CCN(c2ccc(-c3cc(-c4cnn(C5CCN(C(=O)CN6CCN(c7ccc(NC8CCC(=O)NC8=O)cc7F)CC6)CC5)c4)cn4ncc(C#N)c34)cn2)CC1` (stereo not shown) [Compound 66, 1-[5-[3-cyano-6-[1-[1-[2-[4-[4-[(2,6-dioxo-3-piperidyl)amino]-2-fluoro-phenyl]piperazin-1-yl]acetyl]-4-piperidyl]pyrazol-4-yl]pyrazolo[1,5-a]pyridin-4-yl]-2-pyridyl]-4-ethyl-N-isopropyl-piperidine-4-carboxamide], the Emax (commonly the greatest response seen or fitted, relative to the assay's reference) in test [1] (setting [3]) was less than 30%; in test [2] (HiBiT-Degradation, read-out: 293T.144 RET (658-1114) 6.0 hours (Emax)), less than 30%. Further, the DC50 (in general, the concentration at which degradation of the target reaches its halfway point) in test [1] (setting [4]) is less than 0.05 µM; in test [1] (HiBiT-Degradation, read-out: 293T.165 RET(KD: 658-1114 G810R) 6.0 hours (DC50)), less than 0.05 µM; in test [2] (HiBiT-Degradation, read-out: 293T.144 RET (658-1114) 6.0 hours (DC50)) it was less than 0.05 µM. The “293T.165 RET(KD: 658-1114 G810R) 6.0 hours (Emax)” value in test [1] (HiBiT-Degradation) was “++++ (< 30% = ++++)”. The “293T.165 RET(KD: 658-1114 G810R) 6.0 hours (IP) [nM]” value in test [1] (HiBiT-Degradation) is recorded as “++++ (< 50 nM = ++++)”. Moreover, the “293T.144 RET (658-1114) 6.0 hours (IP) [nM]” value in test [2] (HiBiT-Degradation) is “++++ (< 50 nM = ++++)”.
For the compound `CCC1(C(=O)NC(C)C)CCN(c2ccc(-c3nc(-c4cnn(C5CCC(CCN6CCC(c7ccc(NC8CCC(=O)NC8=O)cc7F)CC6)CC5)c4)cn4ncc(C#N)c34)cn2)CC1` (stereo not shown) [Compound 181, 1-(5-(3-Cyano-6-(1-((1r, 4r)-4-(2-(4-(4-((2,6-dioxopiperidin-3-yl)amino)-2-fluorophenyl)piperidin-1-yl)ethyl)cyclohexyl)-1H-pyrazol-4-yl)pyrazolo[1,5-a]pyrazin-4-yl)pyridin-2-yl)-4-ethyl-N-isopropylpiperidine-4-carboxamide], the “293T.165 RET(KD: 658-1114 G810R) 6.0 hours (IP) [nM]” value in test [1] is “++++ (<50 nM = ++++)”. In addition, in test [1] (% remaining protein), the “293T.165 RET(KD: 658-1114 G810R) 6.0 hours (Emax)” value is recorded as “++++ (<30% = ++++)”. Besides, the “293T.165 RET(KD: 658-1114 G810R) 6.0 hours (DC50) [nM]” value in test [1] (half-maximal degradation concentration) is listed as “++++ (<50 nM = ++++)”. Also, in test [2], the “293T.144 RET (658-1114) 6.0 hours (IP) [nM]” value is “++++ (<50 nM = ++++)”. Besides, the DC50 in test [2] (setting [5]) is less than 0.05 µM. Besides, in test [2] (% remaining protein), the “293T.144 RET (658-1114) 6.0 hours (Emax)” value was “++++ (<30% = ++++)”.
Turning to `CCC1(C(=O)NC2CCC2)CCN(c2ccc(-c3nc(-c4cnn([C@H]5CC[C@H](N6CCC(c7ccc8c(N9CCC(=O)NC9=O)nn(C)c8c7F)CC6)CC5)c4)cn4ncc(C#N)c34)cn2)CC1` (single isomer, unassigned) [Compound 138, 1-(5-(3-Cyano-6-(1-((1r, 4r)-4-(4-(3-(2,4-dioxotetrahydropyrimidin-1(2H)-yl)-7-fluoro-1-methyl-1H-indazol-6-yl)piperidin-1-yl)cyclohexyl)-1H-pyrazol-4-yl)pyrazolo[1,5-a]pyrazin-4-yl)pyridin-2-yl)-N-cyclobutyl-4-ethylpiperidine-4-carboxamide], the “293T.165 RET(KD: 658-1114 G810R) 6.0 hours (IP) [nM]” value in test [1] is given as “++++ (<50 nM = ++++)”. Also, the Emax in test [1] (setting [3]) and in test [2] (setting [6]) was less than 30% in each case. Further, the DC50 is less than 0.1 µM in test [1] (setting [4]) and less than 0.05 µM in test [2] (setting [5]). The “293T.144 RET (658-1114) 6.0 hours (IP) [nM]” value in test [2] is given as “++++ (<50 nM = ++++)”.
Turning to `COc1ccnc(CN2C3CC2CN(c2ccc(-c4cc(-c5cnn(C6CCN(C(=O)CN7CCC(c8ccc(NC9CCC(=O)NC9=O)cc8F)CC7)CC6)c5)cn5ncc(C#N)c45)cn2)C3)c1` (stereo not shown) [Compound 71, 6-[1-[1-[2-[4-[4-[(2,6-dioxo-3-piperidyl)amino]-2-fluoro-phenyl]-1-piperidyl]acetyl]-4-piperidyl]pyrazol-4-yl]-4-[6-[6-[(4-methoxy-2-pyridyl)methyl]-3,6-diazabicyclo[3.1.1]heptan-3-yl]-3-pyridyl]pyrazolo[1,5-a]pyridine-3-carbonitrile], the Emax in test [1] (setting [3]) was less than 30%; in test [1] (RET G810R, read-out: HiBiT-Degradation 293T.165 RET(KD: 658-1114 G810R) 6.0 hours (Emax)), less than 30%; in test [2] (RET wild-type, read-out: HiBiT-Degradation 293T.144 RET (658-1114) 6.0 hours (Emax)), less than 30%. The DC50 in test [1] (setting [4]) was less than 0.1 µM; in test [1] (RET G810R, read-out: HiBiT-Degradation 293T.165 RET(KD: 658-1114 G810R) 6.0 hours (DC50)) it was less than 0.1 µM; in test [2] (RET wild-type, read-out: HiBiT-Degradation 293T.144 RET (658-1114) 6.0 hours (DC50)), less than 0.05 µM. The “HiBiT-Degradation 293T.165 RET(KD: 658-1114 G810R) 6.0 hours (IP) [nM]” value in test [1] (RET G810R) is recorded as “++++ (< 50 nM = ++++)”. The “HiBiT-Degradation 293T.144 RET (658-1114) 6.0 hours (IP) [nM]” value in test [2] (RET wild-type) is on record as “++++ (< 50 nM = ++++)”.
For `CCC1(C(=O)NC(C)(C)C)CCN(c2ccc(-c3nc(-c4cnn(C5CCN(C(=O)CC6(O)CCN(c7ccc(NC8CCC(=O)NC8=O)cc7F)CC6)CC5)c4)cn4ncc(C#N)c34)cn2)CC1` (stereo not shown) [Compound 103, N-tert-butyl-1-[5-[3-cyano-6-[1-[1-[2-[1-[4-[(2,6-dioxo-3-piperidyl)amino]-2-fluoro-phenyl]-4-hydroxy-4-piperidyl]acetyl]-4-piperidyl]pyrazol-4-yl]pyrazolo[1,5-a]pyrazin-4-yl]-2-pyridyl]-4-ethyl-piperidine-4-carboxamide], in test [1], the “293T.165 RET(KD: 658-1114 G810R) 6.0 hours (IP) [nM]” value was “++++ (<50 nM = ++++)”. Moreover, the Emax in test [1] (setting [3]) and in test [2] (setting [6]) was less than 30% in each case. In addition, the DC50 in test [1] (setting [4]) and in test [2] (setting [5]) was less than 0.05 µM in each case. Further, in test [2], the “293T.144 RET (658-1114) 6.0 hours (IP) [nM]” value is on record as “++++ (<50 nM = ++++)”.
As for `CCC1(C(=O)NC2CCC2)CCN(c2ccc(-c3nc(-c4cnn([C@H]5CC[C@H](N6CCC(c7ccc(N[C@@H]8CCC(=O)NC8=O)cc7Cl)CC6)CC5)c4)cn4ncc(C#N)c34)cn2)CC1` (single isomer, unassigned) [Compound 131], the “293T.165 RET(KD: 658-1114 G810R) 6.0 hours (IP) [nM]” value in test [1] was “++++ (<50 nM = ++++)”. For the same compound, the Emax in test [1] (setting [3]) and in test [2] (setting [6]) was less than 30% in each case. In addition, the 50% degradation concentration (DC50) in test [1] (setting [4]) and in test [2] (setting [5]) was less than 0.05 µM each time. The “293T.144 RET (658-1114) 6.0 hours (IP) [nM]” value in test [2] was “++++ (<50 nM = ++++)”.
For the compound `CCC1(C(=O)NC2CCOCC2)CCN(c2ccc(-c3nc(-c4cnn([C@H]5CC[C@H](N6CCC(c7ccc(N[C@H]8CCC(=O)NC8=O)cc7F)CC6)CC5)c4)cn4ncc(C#N)c34)cn2)CC1` (stereo in doubt) [Compound 144, 1-(5-(3-cyano-6-(1-((1S,4r)-4-(4-(4-(((S)-2,6-dioxopiperidin-3-yl)amino)-2-fluorophenyl)piperidin-1-yl)cyclohexyl)-1H-pyrazol-4-yl)pyrazolo[1,5-a]pyrazin-4-yl)pyridin-2-yl)-4-ethyl-N-(tetrahydro-2H-pyran-4-yl)piperidine-4-carboxamide], the “293T.165 RET(KD: 658-1114 G810R) 6.0 hours (IP) [nM]” value in test [1] is listed as “++++ (<50 nM = ++++)”. Moreover, the Emax in test [1] (setting [3]) and in test [2] (setting [6]) was less than 30% each time. Besides, the DC50 in test [1] (setting [4]) and in test [2] (setting [5]) was less than 0.05 µM in each case. The “293T.144 RET (658-1114) 6.0 hours (IP) [nM]” value in test [2] is “++++ (<50 nM = ++++)”.
Take `CCC1(C(=O)NC(C)C)CCN(c2ccc(-c3nc(-c4cnn(C5CN(C(=O)CC6(O)CCN(c7ccc(NC8CCC(=O)NC8=O)cc7F)CC6)C5)c4)cn4ncc(C#N)c34)cn2)CC1` (stereo not shown) [Compound 184, 1-[5-[3-cyano-6-[1-[1-[2-[1-[4-[(2,6-dioxo-3-piperidyl)amino]-2-fluoro-phenyl]-4-hydroxy-4-piperidyl]acetyl]azetidin-3-yl]pyrazol-4-yl]pyrazolo[1,5-a]pyrazin-4-yl]-2-pyridyl]-4-ethyl-N-isopropyl-piperidine-4-carboxamide]: the “293T.165 RET(KD: 658-1114 G810R) 6.0 hours (IP) [nM]” value in test [1] is reported as “++++ (<50 nM = ++++)”. For the same compound, the Emax in test [1] (setting [3]) and in test [2] (setting [6]) was less than 30% throughout. Besides, the DC50 in test [1] (setting [4]) and in test [2] (setting [5]) was less than 0.05 µM in each case. Besides, in test [2], the “293T.144 RET (658-1114) 6.0 hours (IP) [nM]” value was “++++ (<50 nM = ++++)”.
